Values belong to the compound of their own block, whether it stands above or below them.
Tests used:
[1] = test system: oedema induced by TPA (phorbol 12-myristate-13-acetate) on mouse ear; assay: Acute inflammation on mouse ear: oedema induced by TPA; type: in vivo; conditions: 6 hours after application
Description: The anti-inflammatory activities of the compound of formula (I) in racemic form, of the S enantiomer of the compound of formula (I), of metronidazole and of ibuprofen were measured in an in vivo test performed on a mouse model.
The model used is the model of mouse ear inflammation induced by a single application of TPA (phorbol 12-myristate-13-acetate). Female Balb/c ByJlco mice are used.
The oedema is induced by applying to the ear 20 μl of 0.01% TPA dissolved in ethanol.
The racemic compound of formula (I) is dissolved, at the desired concentration, in the 0.01% TPA solution and thus applied to a group of mice at the same time as the TPA.
The S enantiomer of the compound of formula (I) is dissolved, at the desired concentration, in the 0.01% TPA solution and thus applied to another group of mice at the same time as the TPA.
Similarly, ibuprofen (racemic) is dissolved, at the desired concentration, in the 0.01% TPA solution and is applied to another group of mice at the same time as the TPA. Finally, metronidazole is dissolved, at the desired concentration, in the 0.01% TPA solution and is applied to another group of mice at the same time as the TPA.
The oedema is evaluated, 6 hours after application of the test product, by measuring the thickness of the ear using an Oditest® micrometer.
The TPA-induced oedema is evaluated relative to the ethanol vehicle group. […]

[2] = Stability on keratinocyte cultures; type: in vitro ADME, human; conditions: human neonatal keratinocyte culture, 2 μM, degradation kinetics over 24 hours, LC/MS/MS; read-out: half-life time (t1/2) (converted)
Description: (§1) The stability on keratinocyte cultures is evaluated using human neonatal keratinocytes (Cell'N Tech) cultured in a 75 cm^2 flask and detached at 90-100% of confluence with vegetable trypsin (trypLE GIBCO). The compound of formula (I) was tested at 2 μM in the medium CNT-057 (Cell'N Tech) supplemented with 0.1% pluronic acid in 24-well plates. The final DMSO concentration is 0.1%. Degradation kinetics are performed with a Tecan EVO robot over 24 hours. The samples taken are then assayed by LC/MS/MS (Micromass) in comparison with a calibration range of the test product, prepared under the same conditions as the samples (⅓ culture medium and ⅔ methanol). The chromatographic conditions are optimized for each product. An assay of the appearance of metronidazole is also performed using these same samples.

[3] = test system: oedema induced by arachidonic acid (AA) on mouse ear; assay: Acute inflammation on mouse ear: arachidonic acid-induced oedema; type: in vivo; conditions: 1 hour after application
Description: The anti-inflammatory activities of the compound of formula (I) in racemic form, of the S enantiomer of the compound of formula (I), of metronidazole and of ibuprofen were measured in an in vivo test performed on a mouse model. This model consists in inducing inflammation of the mouse ear with a single application of arachidonic acid (AA). Female Balb/c ByJlco mice are used. The oedema is induced by applying to the mouse's ear 20 μL of AA dissolved to 4% in a 1/1 THF/methanol mixture. The anti-inflammatory activities of the S enantiomer of the compound of formula (I), of the compound of formula (I) in racemic form, of metronidazole and of ibuprofen were evaluated after topical application onto the inner face of the mouse's ear of 20 μL of a solution of the compound in a 1/1 THF/methanol mixture containing 4% AA.
Solutions containing 0.01%; 0.03%; 0.1%; 0.3%; 1% and 2% of the test compound are thus prepared. The percentages correspond to the weight of the test compound per volume of solution. The oedema is evaluated, 1 hour after application, by measuring the thickness of the ear using an Oditest® micrometer. The oedema induced by AA alone is evaluated, 1 hour after application, by measuring the thickness of the ear using an Oditest® micrometer. It is evaluated relative to a group comprising only the vehicle (1/1 THF/methanol). […]

[4] = test system: human neonatal keratinocytes; assay: Stability on keratinocyte cultures; type: in vitro ADME; conditions: human neonatal keratinocyte cultures, comparative esters
Description: as §1

Compound: Cc1ncc([N+](=O)[O-])n1CCOC(=O)c1cc(-c2ccc(F)cc2F)ccc1O [metronidazole ester with diflunisal]
hydrolysis / stability on keratinocyte cultures [4]: do not become hydrolysed

Compound: Cc1ncc([N+](=O)[O-])n1CCOC(=O)C1CCn2c(C(=O)c3ccccc3)ccc21 (stereo not shown) [metronidazole ester with ketorolac]
hydrolysis / stability on keratinocyte cultures [4]: do not become hydrolysed

Compound: Cc1ncc([N+](=O)[O-])n1CCO [metronidazole]
anti-inflammatory activity ([1]; topical): no anti-inflammatory activity
anti-inflammatory activity ([3]; AA-induced mouse ear oedema, topical): no anti-inflammatory activity

Further lines, with some results ahead:

IC50 (concentration at which 50% inhibition of the oedema induced by TPA alone is observed) ([1]; topical with 0.01% TPA): 0.28%
half-life at 2 μM [2]: 3 h
Compound: Cc1ncc([N+](=O)[O-])n1CCOC(=O)C(C)c1ccc(CC(C)C)cc1 (racemic) [racemic compound of formula (I), 2-(2-methyl-5-nitroimidazol-1-yl)ethyl 2-(4-isobutylphenyl)propionate]

half-life at 2 μM [2]: 20 h
Compound: Cc1ncc([N+](=O)[O-])n1CCOC(=O)[C@@H](C)c1ccc(CC(C)C)cc1 [S enantiomer of the compound of formula (I), 2-(2-methyl-5-nitroimidazol-1-yl)ethyl (S)-2-(4-isobutylphenyl)propionate]
inhibition of the oedema induced by AA alone ([3]; dose of 1% (w/v) topical on mouse ear): 49%

hydrolysis / stability on keratinocyte cultures [4]: do not become hydrolysed
Compound: COc1ccc2c(c1)c(CC(=O)OCCn1c([N+](=O)[O-])cnc1C)c(C)n2C(=O)c1ccc(Cl)cc1 [metronidazole ester with indomethacin]

hydrolysis / stability on keratinocyte cultures [4]: do not become hydrolysed
Compound: Cc1ncc([N+](=O)[O-])n1CCOC(=O)c1cccnc1Nc1cccc(C(F)(F)F)c1 [metronidazole ester with niflumic acid]
